Patent publication US11701389B2, “Methods of preserving mesenchymal stem cells” (Emory University, priority 2016, dated 2023)
Where a SMILES comes first, the peptide text is derived from it. The star is where a group is joined. Cbz = O=C(OCc1ccccc1)*; CH2F = FC*

Test system: T cell proliferation in SEB activated PBMCs
Assay: MSC and PBMC coculture, Ki67 T cell proliferation assay
Assay type: cell-based, human
Details: for inhibition of T cell proliferation by frozen-thawed MSCs pretreated with inhibitor prior to cryopreservation: Z-VAD-FMK 50 uM or 3-Methyl Adenine 1 mM pretreatment, FIG. 5A, 5B

| Structure (SMILES) | effect of IDO blocking on suppression of T-cell proliferation by IFNgamma Cryo MSCs (1 mM added to coculture, FIG. 5F) | inhibition of T cell proliferation by frozen-thawed MSCs pretreated with inhibitor prior to cryopreservation |
| --- | --- | --- |
| Cn1cc(C[C@H](N)C(=O)O)c2ccccc21 (racemic) [1-Methyl Tryptophan] | negates the suppressive effect |  |
| Cn1cnc(N)c2ncnc1-2 [3-Methyl Adenine] |  | defective in inhibiting T cell proliferation |
| COC(=O)C[C@H](NC(=O)[C@H](C)NC(=O)[C@@H](NC(=O)OCc1ccccc1)C(C)C)C(=O)CF [Z-VAD-FMK] (Cbz-Val-Ala-Asp(OMe)-CH2F) |  | defective in inhibiting T cell proliferation |
